# pIC50: −log10 of the molar value.
# Experiments:
# aldose reductase = molecular target: T1, aldose reductase (Rattus norvegicus, UniProt P07943); test: Determination of Aldose Reductase-inhibiting Activity; type: biochemical, Wistar type male rat (crystalline lens); details: rat lens enzyme; 0.1 mM DL-glyceraldehyde, 0.03 mM NADPH, pH 7.0, 30° C., 30 minutes; read-out: 50% inhibition concentration (IC50)
# T1 construct: From the crystalline lens, aldose reductase was prepared; from tissue; host or cells: crystalline lens of five-week old male Wistar rat
# Experimental: A five-week old Wistar type male rat was sacrificed under anesthesia and immediately dissected to remove crystalline lens. From the crystalline lens, aldose reductase was prepared by following the Hyman et al's method [J. Biol. Chem., 240, 877-882 (1965)] with necessary modifications. The aldose reductase activity was determined by the Dufrane et al's method [Biochem. Med., 32, 99-105 (1984)]. In 400 μl of a 135 mM sodium-potassium phosphate buffer solution (pH 7.0) prepared in advance so as to contain 100 mM lithium sulfate, 0.03 mM NADPH (reducing type nicotinamide adenine dinucleotide phosphate), and 0.1 mM DL-glyceraldehyde as a substrate, 50 μl of the aforementioned aldose reductase and 50 μl of a sample of a varying concentration (having Compound 1, or Compound 2, or Compound 3 dissolved in ethanol) added thereto were left reacting at 30° C. for 30 minutes. Then, the reaction was stopped by addition of 0.15 ml of 0.5N hydrochloric acid. The NADP (oxide type nicotinamide adenine dinucleotide phosphate) produced by the reaction in the reaction mixture was converted into a fluorescent substance by the addition thereto of 0.5 ml of 6N sodium hydroxide containing 10 mM imidazole. After the elapse of 60 minutes following the conversion, the produced reaction mixture was tested for intensity of fluorescence. The intensity of fluorescence was determined by the use of a fluorescence tester (produced by Corona Denki K.K. and marketed under trademark designation of "MTP-100F Corona Microplate Reader") under the conditions of 360 nm of excitation wavelength and 460 nm of fluorescent wavelength. The intensity of fluorescence determined by repeating the procedure described above, except ethanol was added in the place of the sample was used as a control value. As the aldose reductase inhibiting activity of a sample, the concentration of the sample required for inhibiting 50% of the aldose reductase activity due to a decline of the intensity of fluorescence (i.e. 50% inhibition concentration: IC50 value) was obtained.
# in vivo = details: mouse, oral, ICR type male mice (five-week old)
# Experimental: The compounds 1, 2 and 3 of this invention were tested for acute toxicity by oral administration thereof to ICR type male mice (five-week old).
# blood sugar = test: Blood sugar drop ratio in streptozotocin diabetic rats; type: in vivo, Wistar type male rats; details: oral, four days, blood 3 hours after administration
# Experimental: (§1) Groups each of five three-week old Wistar type male rats were used for the test. To the rats, streptozotocin was administered at a concentration of 65 mg/kg via the tail vein. Of these rats, those whose blood sugar values fell in the range of from 250 to 650 mg/dl one week after the administration were designated as diabetic rats. As a control medicine, Compound 4 represented by the formula VII was used. [drawing 9]
# (§2) The five groups, i.e. the group of untreated diabetic rats, the group of rats subjected to administration of control medicine (50 mg/kg×2/day), the group of rats subjected to administration of sample (100 mg/kg/day), and the group of normal rats, were tested. A given medicine was suspended in 5% gum arabic and orally administered continually for four days after the elapse of two weeks following the onset of diabetes. To the group of untreated diabetic rats and the group of normal rats, a 5% gum arabic solution […] was administered in a ratio of 10 ml/kg. After the elapse of three hours following the administration, the blood was extracted from each rat with the aid of heparin via the tail vein (for the determination of blood sugar) and the abdominal aorta.
# The PRC was tested for sorbitol content by the Malon et al's method [Diabetes, 29, 861-864 (1980)]. The determination of the blood sugar value was carried out by the alucose-oxidase method.
# The blood sugar drop ratio and the sorbitol accumulation inhibition ratio were calculated in accordance with Formula 1 and Formula 2.
# Blood sugar drop ratio (%)=(1-[(Average blood sugar value of the group of rats subjected to administration of sample or control medicine-Average blood sugar value of the group of normal rats)/(Average blood sugar value of the group of untreated diabetic rats-Average blood sugar value of the group of normal rats)])×100
# [1] = test system: Sorbitol in Red Blood Cells; test: Action to Curb Accumulation of Sorbitol in Red Blood Cells (streptozotocin diabetic rats); type: in vivo, Wistar type male rats; details: control medicine 50 mg/kg×2/day, oral, four days; packed red cells, blood 3 hours after administration
# Experimental: as §1
# as §2, with “aorta. […]” for “aorta.”
# The blood sugar drop ratio and the sorbitol accumulation inhibition ratio were calculated in accordance with Formula 1 and Formula 2. […]
Compound,pIC50 (aldose reductase),LD50 (in vivo),Blood sugar drop ratio (blood sugar; sample 100 mg/kg/day),Sorbitol accumulation inhibition ratio [1],Blood sugar drop ratio (blood sugar; control medicine 50 mg/kg×2/day)
"O=C1NC(=O)C(Cc2ccc(C(=O)C=Cc3ccc(O)c(O)c3)cc2)S1 (centres unmarked) [Compound 1, 5-{4-[3-(3,4-dihydroxyphenyl)-2-propenoyl]benzyl}thiazolidine-2,4-dione]",6.28,≥ 1000 mg/kg,46.8%,,
"COc1cc(C=CC(=O)c2ccc(CC3SC(=O)NC3=O)cc2)ccc1O (centres unmarked) [Compound 2, 5-{4-[3-(4-hydroxy-3-methoxyphenyl)-2-propenoyl]benzyl}thiazolidine-2,4-dione]",5.38,≥ 1000 mg/kg,60.5%,,
"COc1cc(C=CC(=O)c2cccc(CC3SC(=O)NC3=O)c2)ccc1O (centres unmarked) [Compound 3, 5-{3-[3-(4-hydroxy-3-methoxyphenyl)-2-propenoyl]benzyl}thiazolidine-2,4-dione]",5.72,≥ 1000 mg/kg,42.6%,,
"CC(=Cc1ccccc1)C=C1SC(=S)N(CC(=O)O)C1=O [Compound 4, reference compound]",,,,90.3%,7.2%

# From patent US5225426A, “Thiazolidine-2,4-dione compound and method of treatment of diabetic complications” (Terumo Kabushiki Kaisha, priority 1990, dated 1993)
